Converted amounts (≈) assume the structure as drawn.
Key:
Test in all cases: ≥ marks a high value that may be exact or a test limit, other limits are often not marked, values filed in µg/mL are converted to µM
[1] = tested on: Pseudomonas syringae pv. syringae EPS 94
[2] = tested on: Xanthomonas campestris pv. Vesicatoria 2133-2
[3] = tested on: Erwinia amylovora PMV 6076
[4] = tested on: Staphylococcus aureus ATCC 6538P
[5] = tested on: Micrococcus luteus ATCC 10240
[6] = tested on: Staphylococcus epidermidis ATCC 12228
[7] = tested on: Klebsiella pneumoniae ATCC 10031
[8] = tested on: Pseudomonas aeruginosa ATCC 27853
[9] = tested on: Bacillus subtilis ATCC 6633
[10] = tested on: Salmonella enterica subsp. enterica serovar Typhimurium ATCC 14028
[11] = tested on: Escherichia coli ATCC 25922
[12] = tested on: Shigella dysenteriae ATCC 9752
[13] = tested on: Salmonella enterica subsp. enterica serovar Pullorum ATCC 7913
Escherichia coli 078 = tested on: Escherichia coli 078
[14] = tested on: Candida albicans CGMCC 2.2086
Escherichia coli UB1005 = tested on: Escherichia coli UB1005
[15] = tested on: Staphylococcus aureus ATCC 25923
[16] = tested on: Candida tropicalis CGMCC 2.1975
Escherichia coli K88 = tested on: Escherichia coli K88
[17] = tested on: Candida parapsilosis CGMCC 2.3989
[18] = tested on: Staphylococcus aureus ATCC 43300
[19] = tested on: Salmonella enterica subsp. enterica serovar Typhimurium C77-31
Escherichia coli K99 = tested on: Escherichia coli K99
[20] = tested on: Salmonella enterica serovar Typhimurium
[21] = tested on: Pseudomonas aeruginosa PAO1
[22] = tested on: Pseudomonas syringae pv. tomato DC3000
[23] = tested on: Xanthomonas vesicatoria DSM 50861
[24] = tested on: Pectobacterium carotovorum subsp. carotovorum DSM 30168
[25] = tested on: Clavibacter michiganensis subsp. michiganensis DSM 46294
[26] = tested on: Pseudomonas corrugata DSM 7228
[27] = tested on: Pseudomonas syringae pv. syringae DSM 10604
[28] = tested on: Escherichia coli K12 MG1655
[29] = tested on: Mycobacterium tuberculosis H37Rv

Which results are given for CC[C@H](C)[C@H](NC(=O)[C@H](CCCCN)NC(=O)[C@H](CCCCN)NC(=O)[C@H](Cc1ccccc1)NC(=O)[C@H](CC(C)C)NC(=O)[C@H](CCCCN)NC(=O)[C@@H](N)CCCCN)C(=O)N[C@@H](CC(C)C)C(=O)N[C@@H](CCCCN)C(=O)N[C@@H](Cc1ccc(O)cc1)C(=O)N[C@@H](CC(C)C)C(=O)N[C@@H](CCCCN)C(=O)N[C@@H](Cc1ccccc1)C(=O)N[C@@H](CC(C)C)C(=O)N[C@@H](Cc1cnc[nH]1)C(=O)N[C@@H](CO)C(=O)N[C@@H](C)C(=O)N[C@@H](CCCCN)C(=O)N[C@@H](CCCCN)C(=O)N[C@@H](CC(=O)O)C(=O)N[C@@H](CCC(=O)O)C(=O)N[C@@H](CC(C)C)C(=O)O [KKLFKKILKYLKFLHSAKKDEL]?
MIC [1]: 1.77 µM (≈ 4.81 µg/mL); MIC [2]: 1.77 µM (≈ 4.81 µg/mL); MIC [3]: 3.54 µM (≈ 9.61 µg/mL)

How did the MIC [1] turn out when CC(C)C[C@H](NC(=O)[C@H](CCC(=O)O)NC(=O)[C@H](CC(=O)O)NC(=O)[C@H](CCCCN)NC(=O)[C@H](CC(C)C)NC(=O)[C@H](Cc1cnc[nH]1)NC(=O)[C@H](CCC(=O)O)NC(=O)[C@H](Cc1c[nH]c2ccccc12)NC(=O)[C@H](CC(=O)O)NC(=O)[C@H](CCCCN)NC(=O)[C@H](CC(C)C)NC(=O)[C@H](Cc1cnc[nH]1)NC(=O)[C@H](CCC(=O)O)NC(=O)[C@H](Cc1c[nH]c2ccccc12)NC(=O)[C@H](CC(=O)O)NC(=O)[C@H](CCCCN)NC(=O)[C@H](CC(C)C)NC(=O)[C@H](Cc1cnc[nH]1)NC(=O)[C@H](CCC(=O)O)NC(=O)[C@H](Cc1c[nH]c2ccccc12)NC(=O)[C@H](CC(=O)O)NC(=O)[C@@H](N)CCCCN)C(=O)O [KDWEHLKDWEHLKDWEHLKDEL] was run?
The MIC was at least 100 µM.

And the MIC [2]?
Its MIC is at least 100 µM.

What about the MIC [3] of the same compound?
Its MIC is at least 100 µM.

Which MIC [1] does the source give for CC[C@H](C)[C@H](NC(=O)[C@H](CCCCN)NC(=O)[C@H](CCCCN)NC(=O)[C@H](Cc1ccccc1)NC(=O)[C@H](CC(C)C)NC(=O)[C@H](CCCCN)NC(=O)[C@@H](N)CCCCN)C(=O)N[C@@H](CC(C)C)C(=O)N[C@@H](CCCCN)C(=O)N[C@@H](Cc1ccc(O)cc1)C(=O)N[C@@H](CC(C)C)C(=O)N[C@@H](C)C(=O)NCC(=O)N1CCC[C@H]1C(=O)N[C@@H](C)C(=O)N[C@@H](CCCCN)C(=O)N[C@@H](Cc1ccccc1)C(=O)N[C@@H](CC(C)C)C(=O)N[C@@H](Cc1cnc[nH]1)C(=O)N[C@@H](CO)C(=O)N[C@@H](C)C(=O)N[C@@H](CCCCN)C(=O)O [KKLFKKILKYLAGPAKFLHSAK] here?
The MIC was 1.77 µM (≈ 4.47 µg/mL).

And the MIC [2]?
The MIC was 3.54 µM (≈ 8.95 µg/mL).

And the MIC [3]?
The MIC was 3.54 µM (≈ 8.95 µg/mL).

Which MIC [4] does the source give for CC(C)C[C@H](NC(=O)[C@H](Cc1c[nH]c2ccccc12)NC(=O)CNC(=O)[C@H](CC(C)C)NC(=O)[C@@H](N)Cc1ccccc1)C(=O)N[C@@H](Cc1ccccc1)C(=O)N[C@@H](CCCCN)C(=O)N[C@@H](Cc1c[nH]c2ccccc12)C(=O)N[C@@H](C)C(=O)N[C@@H](Cc1c[nH]c2ccccc12)C(=O)N[C@@H](CCCCN)C(N)=O [FLGWLFKWAWK] here?
The MIC was 4.25 µM (≈ 6.3 µg/mL).

And the MIC [5]?
The MIC was 2.09 µM (≈ 3.1 µg/mL).

What about the MIC [6] of the same compound?
Its MIC is 4.25 µM (≈ 6.3 µg/mL).

What about the MIC [7] of the same compound?
The MIC was 8.44 µM (≈ 12.5 µg/mL).

And the MIC [8]?
Its MIC is over 135 µM.

And the MIC [9]?
The MIC was 4.25 µM (≈ 6.3 µg/mL).

What about the MIC [10] of the same compound?
Its MIC is 67.5 µM (≈ 99.9 µg/mL).

What about the MIC [11] of the same compound?
The MIC was 16.9 µM (≈ 25 µg/mL).

And the MIC [12]?
Its MIC is 8.44 µM (≈ 12.5 µg/mL).

Which results are given for CC[C@H](C)[C@H](NC(=O)[C@H](CCCN=C(N)N)NC(=O)[C@H](C)NC(=O)[C@H](C)N)C(=O)N[C@H](C(=O)N[C@@H](CC(C)C)C(=O)N[C@@H](CCCN=C(N)N)C(=O)N[C@@H](Cc1ccc(O)cc1)C(=O)N[C@@H](CCCN=C(N)N)C(=O)N[C@@H](Cc1ccccc1)C(=O)N[C@@H](CCCN=C(N)N)C(N)=O)[C@@H](C)CC [AARIILRYRFR]?
MIC [13]: 4 µM (≈ 5.74 µg/mL); MIC [6]: 2 µM (≈ 2.87 µg/mL); MIC (Escherichia coli 078): 4 µM (≈ 5.74 µg/mL); MIC [14]: ≥ 128 µM; MIC (Escherichia coli UB1005): 4 µM (≈ 5.74 µg/mL); MIC [15]: 8 µM (≈ 11.5 µg/mL); MIC [16]: 16 µM (≈ 22.9 µg/mL); MIC (Escherichia coli K88): 4 µM (≈ 5.74 µg/mL); MIC [8]: 16 µM (≈ 22.9 µg/mL); MIC [17]: ≥ 64 µM; MIC [18]: 4 µM (≈ 5.74 µg/mL); MIC [19]: 4 µM (≈ 5.74 µg/mL); MIC (Escherichia coli K99): 4 µM (≈ 5.74 µg/mL); MIC [10]: 8 µM (≈ 11.5 µg/mL)

Which results are given for CC[C@H](C)[C@H](NC(=O)[C@@H](NC(=O)[C@H](CS)NC(=O)[C@@H](NC(=O)[C@H](CCCN=C(N)N)NC(=O)[C@H](CS)NC(=O)[C@H](CCCN=C(N)N)NC(=O)[C@H](CC(C)C)NC(=O)[C@H](CCC(N)=O)NC(=O)[C@@H](N)C(C)C)C(C)C)C(C)C)C(=O)N[C@@H](CCCN=C(N)N)C(=O)N[C@@H](CCCCN)C(=O)O [VQLRCRVCVIRK]?
MIC [20]: 21.7 µM (≈ 32 µg/mL); MIC [15]: 43.5 µM (≈ 64 µg/mL); MIC [21]: 43.5 µM (≈ 64 µg/mL); MIC [11]: 21.7 µM (≈ 32 µg/mL)

CC[C@H](C)[C@H](NC(=O)[C@H](C)NC(=O)[C@H](CC(C)C)NC(=O)[C@H](CCCN=C(N)N)NC(=O)[C@H](CC(C)C)NC(=O)[C@@H](NC(=O)[C@H](CCCN=C(N)N)NC(=O)[C@H](CC(C)C)NC(=O)[C@@H](NC(=O)[C@H](CC(C)C)NC(=O)[C@H](CCCN=C(N)N)NC(=O)[C@H](CCCN=C(N)N)NC(=O)[C@@H](N)CCCCN)[C@@H](C)CC)[C@@H](C)CC)C(=O)N[C@@H](CCCN=C(N)N)C(=O)N[C@H](C(=O)N[C@@H](CC(C)C)C(=O)N[C@H](C(=O)N[C@@H](CCCCN)C(=O)N[C@@H](CCCCN)C(=O)N[C@@H](CCCN=C(N)N)C(N)=O)C(C)C)[C@@H](C)CC [KRRLILRILRLAIRILVKKR] was tested. Which MIC [22] did it give?
Its MIC is 3.96 µM (≈ 10 µg/mL).

What about the MIC [23] of the same compound?
The MIC was 0.989 µM (≈ 2.5 µg/mL).

What about the MIC [24] of the same compound?
Its MIC is 3.96 µM (≈ 10 µg/mL).

And the MIC [25]?
The MIC was 0.989 µM (≈ 2.5 µg/mL).

What about the MIC [26] of the same compound?
The MIC was 3.96 µM (≈ 10 µg/mL).

What about the MIC [27] of the same compound?
Its MIC is 3.96 µM (≈ 10 µg/mL).

How did the MIC [28] turn out when CC(C)C[C@H](NC(=O)[C@H](CCCCN)NC(=O)[C@@H](N)CCCN=C(N)N)C(=O)N[C@@H](C)C(=O)N[C@@H](Cc1ccccc1)C(=O)N[C@@H](CCCCN)C(=O)N1CCC[C@H]1C(=O)N[C@@H](CC(C)C)C(=O)N[C@@H](CCCCN)C(=O)N[C@@H](CCCCN)C(=O)N[C@@H](Cc1ccccc1)C(=O)N[C@@H](Cc1ccccc1)C(=O)N[C@@H](CO)C(=O)N[C@@H](Cc1c[nH]c2ccccc12)C(=O)N[C@@H](CCCCN)C(=O)N[C@@H](CO)C(=O)O [RKLAFKPLKKFFSWKS] was run?
The MIC was 7.95 µM (≈ 16 µg/mL).

C[C@H](NC(=O)[C@@H]1CCCN1C(=O)[C@H](CCC(=O)O)NC(=O)[C@H](CCC(N)=O)NC(=O)[C@H](CCCCN)NC(=O)[C@@H]1CCCN1C(=O)[C@H](C)NC(=O)[C@@H]1CCCN1C(=O)[C@H](CCCCN)NC(=O)[C@@H]1CCCN1C(=O)[C@H](CCCCN)NC(=O)[C@@H](NC(=O)[C@@H](NC(=O)[C@H](CCCN=C(N)N)NC(=O)[C@@H]1CCCN1C(=O)[C@H](CCCCN)NC(=O)[C@@H](N)CCCN=C(N)N)[C@@H](C)O)[C@@H](C)O)C(=O)N[C@H](C(=O)N[C@@H](CCC(=O)O)C(=O)N[C@@H](CCC(=O)O)C(=O)O)[C@@H](C)O [RKPRTTKPKPAPKQEPATEE] was tested. Which MIC [29] did it give?
Its MIC is at least 87.4 µM.

Reference: DBAASP
